{
  "source": "patent US20260159534A1",
  "about": "“NOVEL CRYSTAL FORMS OF PEPTIDE BORIC ACID COMPOUND AND PREPARATION METHODS THEREFOR” (JIANGSU CHUANGTE PHARMACEUTICAL TECHNOLOGY CO., LTD., priority 2021, published 2026)",
  "format_in_all_cases": "physicochemical",
  "key": {"[1]": {"test": "Solubility test in ultra-pure water", "conditions": "for Solubility property (in words): solubility and kinetic solubility; for Solubility: upper limit 300 μg/mL", "from_the_text": "(§1) Four crystal samples produced, namely the eutectic sample and the crystal form A sample of Example 1, the crystal form B sample of Example 2, and the crystal form D sample of Example 3, were subjected to solubility tests and a kinetic solubility determination tests in ultra-pure water, and the solubility results are shown in Tables 1 and 2."}, "[2]": {"test": "Kinetic solubility determination in ultra-pure water", "conditions": "upper limit 1000 μg/mL", "from_the_text": "as §1"}, "[3]": {"test": "Hygroscopicity test (dynamic vapor sorption)", "conditions": "25° C.; for Hygroscopicity comparison (in words) / Hygroscopicity: 0-80% RH; for Weight change in the range of 0% RH to 80% RH: dynamic vapor sorption", "description": "Four crystal samples produced, namely the eutectic sample and the crystal form A sample of Example 1, the crystal form B sample of Example 2, and the crystal form D sample of Example 3, were subjected to hygroscopicity tests at 25° C. under a changing relative humidity of 0-80% RH."}, "[4]": {"test": "Stability influence factor tests (high temperature, high humidity, illumination)", "conditions": "for Stability during the 10 days of examination (in words): high temperature, high humidity, illumination", "description": "Four crystal samples produced, namely the eutectic sample and the crystal form A sample of Example 1, the crystal form B sample of Example 2, and the crystal form D sample of Example 3, were each subjected the stability influence factor tests under high temperature (60° C., in the dark), high humidity (relative humidity of 90%[…], in the dark), and illumination (4500 lx±500 lx), and sampling was carried out to on day 0, day 5 day, and day 10 for […] determination, and the results are shown in Table 4 below."}, "[5]": {"conditions": "5 d, high humidity (relative humidity of 90%±50, in the dark)"}, "[6]": {"conditions": "5 d, high temperature (60° C., in the dark)"}, "[7]": {"conditions": "5 d, illumination (4500 lx±500 lx)"}, "[8]": {"conditions": "10 d, high humidity (relative humidity of 90%±50, in the dark)"}, "[9]": {"conditions": "10 d, high temperature (60° C., in the dark)"}, "[10]": {"conditions": "10 d, illumination (4500 lx±500 lx)"}},
  "data": [
    {"compound": "CSC[C@H](NC(=O)c1cc(Cl)ccc1Cl)C(=O)N[C@@H](CC(C)C)B1OCCNCCO1", "note": "[Crystal form A of Example 1, N—((R)-1-(((R)-1-(1,3,6,2-dioxazaborolan-2-yl)-3-methylbutyl)amino)-3-(methylthio)-1-oxoprop-2-yl)-2,5-dichlorobenzamide]", "values": [
      {"measurement": "Solubility property (in words)", "setting": "[1]", "result": "excellent solubility property"},
      {"measurement": "Solubility", "setting": "[1]", "result": 318.09, "unit": "µg/mL"},
      {"measurement": "Kinetic solubility", "setting": "[2]", "result": 958.47, "unit": "µg/mL"},
      {"measurement": "Hygroscopicity comparison (in words)", "setting": "[3]", "result": "weaker hygroscopicity compared with the crystal form D"},
      {"measurement": "Weight change in the range of 0% RH to 80% RH", "setting": "[3]", "result": 1.4, "unit": "%"},
      {"measurement": "Stability results (content)", "setting": "[4]; 0 h", "result": 99.01, "unit": "%"},
      {"measurement": "Stability results (content)", "setting": "[4]; [5]", "result": 99.24, "unit": "%"},
      {"measurement": "Stability results (content)", "setting": "[4]; [6]", "result": 98.97, "unit": "%"},
      {"measurement": "Stability results (content)", "setting": "[4]; [7]", "result": 98.61, "unit": "%"},
      {"measurement": "Stability results (content)", "setting": "[4]; [8]", "result": 99.23, "unit": "%"},
      {"measurement": "Stability results (content)", "setting": "[4]; [9]", "result": 99.22, "unit": "%"},
      {"measurement": "Stability results (content)", "setting": "[4]; [10]", "result": 98.90, "unit": "%"},
      {"measurement": "Stability during the 10 days of examination (in words)", "setting": "[4]", "result": "no significant content change"}
    ]},
    {"compound": "CSC[C@H](NC(=O)c1cc(Cl)ccc1Cl)C(=O)N[C@@H](CC(C)C)B1OCCNCCO1", "note": "[Crystal form B of Example 2, N—((R)-1-(((R)-1-(1,3,6,2-dioxazaborolan-2-yl)-3-methylbutyl)amino)-3-(methylthio)-1-oxoprop-2-yl)-2,5-dichlorobenzamide]", "values": [
      {"measurement": "Solubility property (in words)", "setting": "[1]", "result": "excellent solubility property"},
      {"measurement": "Solubility", "setting": "[1]", "result": 302.80, "unit": "µg/mL"},
      {"measurement": "Kinetic solubility", "setting": "[2]", "result": 1078.59, "unit": "µg/mL"},
      {"measurement": "Hygroscopicity", "setting": "[3]", "result": "Nonhygroscopic"},
      {"measurement": "Hygroscopicity comparison (in words)", "setting": "[3]", "result": "weaker hygroscopicity compared with the crystal form D"},
      {"measurement": "Weight change in the range of 0% RH to 80% RH", "setting": "[3]", "result": "Less than 0.2%"},
      {"measurement": "Stability results (content)", "setting": "[4]; 0 h", "result": 99.16, "unit": "%"},
      {"measurement": "Stability results (content)", "setting": "[4]; [5]", "result": 98.41, "unit": "%"},
      {"measurement": "Stability results (content)", "setting": "[4]; [6]", "result": 98.92, "unit": "%"},
      {"measurement": "Stability results (content)", "setting": "[4]; [7]", "result": 99.22, "unit": "%"},
      {"measurement": "Stability results (content)", "setting": "[4]; [8]", "result": 99.08, "unit": "%"},
      {"measurement": "Stability results (content)", "setting": "[4]; [9]", "result": 99.25, "unit": "%"},
      {"measurement": "Stability results (content)", "setting": "[4]; [10]", "result": 99.11, "unit": "%"},
      {"measurement": "Stability during the 10 days of examination (in words)", "setting": "[4]", "result": "no significant content change"}
    ]},
    {"compound": "CSC[C@H](NC(=O)c1cc(Cl)ccc1Cl)C(=O)N[C@@H](CC(C)C)B1OCCNCCO1", "note": "[Crystal form D of Example 3, N—((R)-1-(((R)-1-(1,3,6,2-dioxazaborolan-2-yl)-3-methylbutyl)amino)-3-(methylthio)-1-oxoprop-2-yl)-2,5-dichlorobenzamide]", "values": [
      {"measurement": "Solubility property (in words)", "setting": "[1]", "result": "excellent solubility property"},
      {"measurement": "Solubility", "setting": "[1]", "result": 304.21, "unit": "µg/mL"},
      {"measurement": "Kinetic solubility", "setting": "[2]", "result": 902.91, "unit": "µg/mL"},
      {"measurement": "Hygroscopicity", "setting": "[3]", "result": "Deliquescent"},
      {"measurement": "Weight change in the range of 0% RH to 80% RH", "setting": "[3]", "result": 2.4, "unit": "%"},
      {"measurement": "Stability results (content)", "setting": "[4]; 0 h", "result": 98.05, "unit": "%"},
      {"measurement": "Stability results (content)", "setting": "[4]; [5]", "result": 97.88, "unit": "%"},
      {"measurement": "Stability results (content)", "setting": "[4]; [6]", "result": 97.68, "unit": "%"},
      {"measurement": "Stability results (content)", "setting": "[4]; [7]", "result": 98.07, "unit": "%"},
      {"measurement": "Stability results (content)", "setting": "[4]; [8]", "result": 98.39, "unit": "%"},
      {"measurement": "Stability results (content)", "setting": "[4]; [9]", "result": 98.52, "unit": "%"},
      {"measurement": "Stability results (content)", "setting": "[4]; [10]", "result": 98.49, "unit": "%"},
      {"measurement": "Stability during the 10 days of examination (in words)", "setting": "[4]", "result": "no significant content change"}
    ]},
    {"compound": "N—((R)-1-(((R)-1-(1,3,6,2-dioxazaborolan-2-yl)-3-methylbutyl)amino)-3-(methylthio)-1-oxoprop-2-yl)-2,5-dichlorobenzamide [White eutectic solid of Example 1]", "values": [
      {"measurement": "Solubility property (in words)", "setting": "[1]", "result": "excellent solubility property"},
      {"measurement": "Solubility", "setting": "[1]", "result": 310.12, "unit": "µg/mL"},
      {"measurement": "Kinetic solubility", "setting": "[2]", "result": 948.16, "unit": "µg/mL"},
      {"measurement": "Hygroscopicity", "setting": "[3]", "result": "Deliquescent"},
      {"measurement": "Weight change in the range of 0% RH to 80% RH", "setting": "[3]", "result": 2.1, "unit": "%"},
      {"measurement": "Stability results (content)", "setting": "[4]; 0 h", "result": 98.10, "unit": "%"},
      {"measurement": "Stability results (content)", "setting": "[4]; [8]", "result": 93.18, "unit": "%"},
      {"measurement": "Stability results (content)", "setting": "[4]; [9]", "result": 97.49, "unit": "%"},
      {"measurement": "Stability results (content)", "setting": "[4]; [10]", "result": 98.06, "unit": "%"},
      {"measurement": "Stability during the 10 days of examination (in words)", "setting": "[4]", "result": "unstable"}
    ]}
  ]
}
